# Experimental data: patent publication US20160074462A1, “Method of Treating HCV” (priority 2014, published 2016)
# Settings: human, in vivo
# Text: Food effect on the drug exposure (e.g., AUC) of Compound 1/r, Compound 2 and Compound 3 was not known. Food effect on the drug exposure of these compounds was also not considered predictable.
# The increase in exposure was similar regardless of meal type (e.g., high-fat vs. moderate-fat) or calorie content (500-600 kcal vs. 1000 kcal). Therefore, the combination of Compound 1/r, Compound 2 and Compound 3, the combination of Compound 1/r and Compound 3, as well as the combination of Compound 1/r and Compound 2, can be taken with food without regard to the specific fat or calorie content.
row,increase of exposure (AUC) by food,SMILES
1,≤ 367%,"Cc1cnc(C(=O)N[C@H]2CCCCC/C=C\[C@@H]3C[C@@]3(C(=O)NS(=O)(=O)C3CC3)NC(=O)[C@@H]3C[C@@H](Oc4nc5ccccc5c5ccccc45)CN3C2=O)cn1 [Compound 1, (2R,6S,13aS,14aR,16aS,Z)-N-(cyclopropylsulfonyl)-6-(5-methylpyrazine-2-carboxamido)-5,16-dioxo-2-(phenanthridin-6-yloxy)-1,2,3,5,6,7,8,9,10,11,13a,14,14a,15,16,16a-hexadecahydrocyclopropa[e]pyrrolo[1,2-a][1,4]diazacyclop entadecine-14a-carboxamide]"
2,up to 127%,COC(=O)N[C@H](C(=O)N1CCCC1C(=O)Nc1ccc(C2CC[C@@H](c3ccc(NC(=O)[C@@H]4CCCN4C(=O)[C@@H](NC(=O)OC)C(C)C)cc3)N2c2ccc(C(C)(C)C)cc2)cc1)C(C)C (stereo partly shown) [Compound 3]
3,≤ 63%,"CC(C)c1nc(CN(C)C(=O)N[C@H](C(=O)N[C@@H](Cc2ccccc2)C[C@H](O)[C@H](Cc2ccccc2)NC(=O)OCc2cncs2)C(C)C)cs1 [ritonavir, reference compound]"
4,≤ 53%,"COc1c(-c2ccc3cc(NS(C)(=O)=O)ccc3c2)cc(-n2ccc(=O)[nH]c2=O)cc1C(C)(C)C [Compound 2, N-(6-(3-tert-butyl-5-(2,4-dioxo-3,4-dihydropyrimidin-1(2H)-yl)-2-methoxyphenyl)naphthalen-2-yl)methanesulfonamide]"
